A short description of data set [1]: in vivo. The following applies: for AUCINF D: mouse, i.v., HU308 2 mg/kg, RO6871304 0.5 mg/kg. How it is done:
Mouse Pharmacokinetic Profiles
Male C57Bl/6 mice (Charles River, Fra nce) were used to study the pharmacokinetics of CB 2R ligands after i.v. and p.o. administration. Animals were up to 12 weeks of age. All animal studies in this section were performed at Hoffmann-La Roche and approved by the Federal Food Safety and Veterinary Office of the Swiss Confederation. Test compounds were formulated according to respective protocols either by dissolution (i.v.) or as aqueous suspensions in a glass potter until homogeneity was achieved (p.o.; formulated as a solution in ethanol/cremophor EL/ 0.9% NaCl (5%/5%/90%)). Formulations were injected i.v. using a 30G needle in the lateral tail vein of mice using a volume of 50 μL in the dose indicated. For p.o. applications, animals were gavaged using a volume of 100 μL in the dose indicated. At the following time points blood was drawn into EDTA: 0.08, 0.25, 0.5, 1, 2, 4, 7 h (for p.o. the first time point was omitted). Six animals were used for each compound.
Animals were distributed randomly over the time course and at each time point, a volume of 100 μL of blood was taken. Quantitative plasma measurement of the compound was performed by LC-MS/MS analysis. Pharmacokinetic analysis was performed using Phoenix WinNonlin 6.4 software using a non-compartmental approach consistent with the route of administration. For assessment of the exposure, Cmax, Tmax, and area under the curve (AUC) were determined from the serum concentration profiles. Parameters (clearance, […], T1/2) were estimated using nominal sampling times relative to the start of each administration. Co (initial concentration) was extrapolated from the first concentration measured following i.v. administration. […]

In data set [2] the target is T1, human CB2R (Homo sapiens, UniProt P34972).
T1 construct: bgal (beta-galactosidase fragment of the PathHunter system, named only in the cell line's name); host or cells: CHO-K1 (CHOK1hCB2_bgal)
T1 sequence (P34972 whole entry, the tested form may be a part): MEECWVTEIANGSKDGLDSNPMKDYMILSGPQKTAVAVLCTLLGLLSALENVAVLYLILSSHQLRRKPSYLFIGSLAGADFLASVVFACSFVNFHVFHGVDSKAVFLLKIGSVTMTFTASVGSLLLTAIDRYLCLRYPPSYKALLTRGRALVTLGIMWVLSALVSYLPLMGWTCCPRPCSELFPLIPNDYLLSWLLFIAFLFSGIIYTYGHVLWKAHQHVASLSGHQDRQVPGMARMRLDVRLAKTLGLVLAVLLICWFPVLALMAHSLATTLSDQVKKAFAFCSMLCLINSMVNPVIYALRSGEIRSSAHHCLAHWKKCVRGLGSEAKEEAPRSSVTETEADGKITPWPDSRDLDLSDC
Description: Radioligand binding assay, human CB2R ([3H]-CP55940). How it is done:
Membrane fractions were prepared from cultured CHOK1hCB1_bgal, CHOK1hCB2_bgal, and CHOK1mCB2_bgal cells (DiscoveRx, Fremont, CA, USA) as previously described. Protein concentration was determined using the Pierce bicinchoninic acid (BCA) protein assay (Rochford, IL, USA) as per the manufacturer’s instructions.
Radio ligand-binding assays were carried out as described by Souethoudt et al. (2018). Briefly, membranes from cells expressing human CB2R or CB1R or mouse CB2R and the radioligand, [^3H]-CP55940 (Perkin Elmer, Basel, Switzerland) was used. […] Membrane aliquots containing 5 µg (CHOK1hCB1_bgal) or 1 µg (CHOK1hCB2_bgal) of membrane protein in 100 µL assay buffer (50 mMTris-HCl, 5 mM MgCl2, 0.1% bovine serum albumin (BSA), pH 7.4) were incubated at 30 °C for 1 h, in presence of 3.5 nM of [^3H]-CP55940 (CHOK1hCB1_bgal) or 1.5 nM [^3H]-CP55940 (CHOK1hCB2_bgal). The incubation was terminated by rapid filtration performed on glass microfibre (GF/C) filters (Whatman International, Maidstone, UK), presoaked for 30 min with 0.25% polyethyleneimine (PEI), and using a Brandel harvester (Brandel, Gaithersburg, MD, USA). Filter-bound radioactivity was determined by scintillation spectrometry using a Tri-Carb 2900 TR liquid scintillation counter (Perkin Elmer, Boston, MA, USA). […] In all receptor binding experiments, nonspecific binding was determined in the presence of 1 µM “cold” agonist.

On the set-up of data set [3]: method as in earlier work. The following applies: * previously published; cited from earlier work.
[4] abbreviates: male, C57Bl/6, mouse, in vivo, iv.
Where [5] appears, read: male, C57Bl/6, mouse, in vivo, iv, 2 mg/kg.

Each structure is given as a SMILES string. pKi: −log10 of the molar value.

For orientation: half-life means the time needed for the level to fall by half in the phase considered. A lower half-life goes with fast loss. In general, Vd refers to a proportionality between amount in the body and measured concentration, not a real space. One may read the clearance as a measure of how efficiently the substance is removed, as volume per time. What is called pKi is the negative decadic logarithm of the Ki, by convention in mol/L.

In data set [1] (setting [4]), `CCCCCCC(C)(C)c1cc(OC)c([C@H]2C=C(CO)[C@H]3C[C@@H]2C3(C)C)c(OC)c1` [HU308, {(1S,4S,5S)-4-[2,6-Dimethoxy-4-(2-methyloctan-2-yl)phenyl]-6,6-dimethylbicyclo[3.1.1]hept-2-en-2-yl}methanol, reference compound] had a half-life of 2.15 h. Besides, in data set [1] (setting [5]), the volume of distribution (Vd) is 2.9 L/kg and the clearance came to 36.6 mL/min/kg. In addition, the “AUCINF D” value in data set [1] turned out to be 456 ng·kg·h/mL/mg.

As for `CCCCCCC(C)(C)c1cc(OC)c(C2=C[C@H]3CC[C@]2(CO)C3(C)C)c(OC)c1` [HU910, {(1S,4R)-2-[2,6-dimethoxy-4-(2-methyloctan-2-yl)phenyl]-7,7-dimethylbicyclo[2.2.1]hept-2-en-1-yl}methanol, reference compound], in data set [2], the “hCB1R Ki/hCB2R Ki” value worked out at 89. For the same molecule, in data set [3], the “Plasma Protein Binding: FREE Fraction mouse” value is 4.1%.

`CC(C)(C)c1nc(N2CC[C@H](O)C2)c2nnn(Cc3nnnn3C3CC3)c2n1` [RO6871304, (3S)-1-{5-tert-butyl-3-[(1-cyclopropyl-1H-tetrazol-5-yl)methyl]-3H-[1,2, 3]triazolo[4,5-d]pyrimidin-7-yl}pyrrolidin-3-ol]: in data set [2] ([3H]-CP55940 displacement, read-out: hCB2R: Ki), the pKi was 7.77. In data set [1] (setting [4]), this molecule gave a half-life of 0.32 h. Moreover, in data set [1], the “AUCINF D” value was 456 ng·kg·h/mL/mg.

Regarding `Cc1nc([C@](C)(CC2CC2)NC(=O)c2cc(OCC(F)(F)F)c(C3CC3)cn2)no1` [RO6871085, 5-Cyclopropyl-N-[(2S)-1-cyclopropyl-2-(5-methyl-1,2,4-oxadiazol-3-yl)propan-2-yl]-4-(2,2,2-trifluoroethoxy)pyridine-2-carboxamide], the “Plasma Protein Binding: FREE Fraction mouse” value in data set [3] is given as 0.9%.

(Values after article PMC6767236, “Selective Cannabinoid 2 Receptor Agonists as Potential Therapeutic Drugs for the Treatment of Endotoxin-Induced Uveitis” (Molecules, 2019).)
